Results on 25 molecules are retold here after PubChem BioAssay AID720577 (The Scripps Research Institute Molecular Screening Center, 2013).

The structures appear in SMILES notation. Activity calls are given as the source filed them. No rule for the calls is given here.

Broadly, the IC50 is the point on the concentration scale where inhibition reaches its midpoint.

This assay addresses CCHF virus vOTU protease domain (L polyprotein). In words: Crimean Congo hemorrhagic fever virus vOTU protease, Pep AMC substrate, counterscreen, confirmatory (AID 720577). The settings on record: purified vOTU, fluorescence. For orientation: The purpose of a counterscreen is to sort out artefacts and off-target activity.
On to `CC(C)C[C@H](NC(=O)c1[nH]cnc1C(=O)N[C@@H](C)C(=O)OC(C)(C)C)C(=O)OC(C)(C)C`, for which the IC50 result was “inactive”.

`CCCCn1c(NS(=O)(=O)c2ccccc2)c(S(=O)(=O)c2ccc(C)cc2)c2nc3ccccc3nc21`: the IC50 was > 115 µM (inactive).

In the case of `CCOc1ccc2noc3c2c1C(=O)c1ccccc1-3`, the IC50 result is “inactive”.

For the molecule `CN(C)c1ccc(C=c2c3cc(O)ccc3n3c2cc(-c2ccccc2)[n+]3C)cc1`, the IC50 was 4.33 µM.

On to `CCOc1ccc(NC(=S)Nc2ccc3nsnc3c2)cc1`, for which the IC50 result was “inactive”.

On to `Cc1cc(=O)c2c(o1)C(=O)c1occc1C2=O`, for which the IC50 entry is “inactive”.

On to `CCOC(=O)N1CCN(C2=C(NS(=O)(=O)c3ccc(C)cc3)C(=O)c3ccccc3C2=O)CC1`, for which the IC50 entry is “inactive”.

`COc1cc(C=c2c3ccccc3n3c2cc(-c2ccccc2)[n+]3C)cc(OC)c1OC`: the IC50 was 5.77 µM.

In the case of `CNc1ccc2nc3ccccc3[n+](C)c2c1`, the IC50 result was “inactive”.

As for `Cn1c2ccccc2c2cc(/C=N/NC(=O)c3cc(O)ccc3O)ccc21`, the IC50 result was “inactive”.

Turning to `O=C(O)c1ccc(NC2=C/C(=N/S(=O)(=O)c3ccccc3)c3ccccc3C2=O)cc1`, the IC50 was 1.03 µM.

As for `O=C1C=C(O)c2[nH]c(=O)ccc2C1=O`, the IC50 entry is “inactive”.

`CC1CCCC(NC(=O)COC(=O)c2ccc([N+](=O)[O-])s2)C1C` (stereo not given): the IC50 result is “inactive”.

With `Cc1ccc(Cl)cc1NC1=C/C(=N\S(=O)(=O)c2cccs2)c2ccccc2C1=O`, the concentration for half-maximal inhibition (IC50) is 2.37 µM.

For `O=C1C(Cl)=C(NCCCO)C(=O)c2ccccc21`, the IC50 entry was “inactive”.

Consider `CC(C)(C)c1cc[n+](C2=C([O-])c3ccccc3C(=O)/C2=N\S(=O)(=O)c2cccs2)cc1`, for which the IC50 entry was “inactive”.

`NS(=O)(=O)c1ccc(NC(=O)COC(=O)c2ccc([N+](=O)[O-])s2)cc1`: the IC50 result is “inactive”.

Turning to `O=C(NC(=S)Nc1ccccc1N1CCCC1)c1cccs1`, the IC50 is > 115 µM (inactive).

`O=c1[nH]c(Nc2ccccc2)cc2cc(Br)ccc12`: the IC50 is 1.45 µM.

`NC1=CC(=O)C(=O)c2cccnc21`: the concentration for half-maximal inhibition (IC50) was 4.94 µM.

For the molecule `O=C(/C=C/c1ccc(O)cc1)c1ccc(NC2=C(N3CCCCC3)C(=O)c3ccccc3C2=O)cc1`, the IC50 entry is “inactive”.

Regarding `O=C1C=C(Nc2ccccc2C(=O)O)c2ccccc2C1=O`, the IC50 is 7.39 µM.

Take `O=C1C=C(N2CCCCC2)c2ccccc2C1=O`: the IC50 entry is “inactive”.

For the molecule `CC(=O)[C@H]1[C@@H]2C(=O)N(c3cccc(Cl)c3)C(=O)[C@@H]2[C@H]2c3ccccc3C=CN21`, the IC50 entry was “inactive”.

For `COc1ccc(N2C(=O)[C@@H]3[C@H](C2=O)[C@H]2c4ccccc4C=CN2[C@@H]3C(C)=O)cc1`, the IC50 result was “inactive”.
